# Test results from patent publication US7943660B2, “Inhibitors of the LFA-1/ICAM-1 interaction and uses thereof” (Dominion Pharmakine S.L., priority 2005, dated 2011).
row,Structure (SMILES),melting point [°C]
1,"CC[C@H](C)C(OCc1ccccc1)[C@H]1[C@H]([N+](=O)[O-])[C@H](c2ccccc2)N[C@@H]1C(=O)NCCC(=O)O (stereo partly drawn) [Compound 1, 3-[(2S,3R,4S,5S)-3-[(2S)-1-(Benzyloxy)-2-methylbutyl]-4-nitro-5-phenylpyrrolidine-2-carboxamido]propanoic acid]",140 to 141
2,"CC[C@H](C)C(OCc1ccccc1F)[C@H]1[C@H]([N+](=O)[O-])[C@H](c2ccccc2)N[C@@H]1C(=O)NCCC(=O)O (stereo partly drawn) [Compound 3, 3-[(2S,3R,4S,5S)-3-[(2S)-1-(2-Fluorobenzyloxy)-2-methylbutyl]-4-nitro-5-phenylpyrrolidine-2-carboxamido]propanoic acid]",136 to 138
3,"CC[C@H](C)C(OCc1ccccc1F)[C@H]1[C@H]([N+](=O)[O-])[C@H](c2ccsc2)N[C@@H]1C(=O)NCCC(=O)O (stereo partly drawn) [Compound 4, 3-[(2S,3R,4S,5S)-3-[(2S)-1-(2-Fluorobenzyloxy)-2-methylbutyl]-4-nitro-5-(thiophen-3-yl)pyrrolidine-2-carboxamido]propanoic acid]",113 to 114
4,"CC[C@H](C)C(OCc1ccccc1)[C@H]1[C@H]([N+](=O)[O-])[C@H](c2ccsc2)N[C@@H]1C(=O)NCCC(=O)O (stereo partly drawn) [Compound 5, 3-[(2S,3R,4S,5S)-3-[(2S)-1-(Benzyloxy)-2-methylbutyl]-4-nitro-5-(thiophen-3-yl)pyrrolidine-2-carboxamido]propanoic acid]",145 to 146
5,"CC[C@H](C)C(OCc1ccccc1F)[C@H]1[C@H]([N+](=O)[O-])[C@@H](c2cccs2)N[C@@H]1C(=O)NCCC(=O)O (stereo partly drawn) [Compound 6, 3-[(2S,3R,4S,5S)-3-[(2S)-1-(2-Fluorobenzyloxy)-2-methylbutyl]-4-nitro-5-(thiophen-2-yl)pyrrolidine-2-carboxamido]propanoic acid]",94 to 96
6,"CC[C@H](C)C(OCc1ccccc1)[C@H]1[C@H]([N+](=O)[O-])[C@@H](c2cccs2)N[C@@H]1C(=O)NCCC(=O)O (stereo partly drawn) [Compound 7, 3-[(2S,3R,4S,5S)-3-[(2S)-1-(Benzyloxy)-2-methylbutyl]-4-nitro-5-(thiophen-2-yl)pyrrolidine-2-carboxamido]propanoic acid]",79 to 80
7,"CC(C)C(OCc1ccccc1)[C@H]1[C@H]([N+](=O)[O-])[C@H](c2cccnc2)N[C@@H]1C(=O)NCCC(=O)O (stereo partly drawn) [Compound 8, 3-[(2S,3R,4S,5S)-3-(1-(Benzyloxy)-2-methylpropyl)-4-nitro-5-(pyridin-3-yl)pyrrolidine-2-carboxamido]propanoic acid]",98 to 100
8,"CC(C)C(OCc1ccccc1)[C@H]1[C@H]([N+](=O)[O-])[C@@H](c2ccco2)N[C@@H]1C(=O)NCCC(=O)O (stereo partly drawn) [Compound 9, 3-[(2S,3R,4S,5S)-3-(1-(Benzyloxy)-2-methylpropyl)-5-(furan-2-yl)-4-nitropyrrolidine-2-carboxamido]propanoic acid]",70 to 72
9,"CC[C@H](C)C(OCc1ccccc1)[C@@H]1[C@H]([N+](=O)[O-])[C@H](c2ccccc2)N(C(=O)CN)[C@]1(C)C(=O)NCCC(=O)O (stereo partly drawn) [Compound 16, 3-[(2S,3R,4S,5S)-1-(2-Aminoacetyl)-3-[(2S)-1-(benzyloxy)-2-methylbutyl]-2-methyl-4-nitro-5-phenylpyrrolidine-2-carboxamido]propanoic acid]",115.9 to 116.2
10,"CC[C@H](C)C(OCc1ccccc1)[C@@H]1[C@H]([N+](=O)[O-])[C@H](c2ccccc2)N(C(=O)CN)[C@]1(C)C(=O)NCCCC(=O)O (stereo partly drawn) [Compound 17, 4-[(2S,3R,4S,5S)-1-(2-aminoacetyl)-3-[(2S)-1-(benzyloxy)-2-methylbutyl]-2-methyl-4-nitro-5-phenylpyrrolidine-2-carboxamido]butanoic acid]",132.7 to 133.6
